Data reported in PubChem BioAssay (NCI).
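Each compound was tested at five concentrations against cells in 96-well plates for 48 hours. Here, GI50 denotes the concentration required for 50% inhibition of growth. TGI: total growth inhibition.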

Key:
Assay in all cases: DTP human tumour cell line panel, 48 h
[1] = tested on: PC-3 prostate
[2] = tested on: COLO 205 colon
[3] = tested on: HCT-116 colon
[4] = tested on: NCI-H460 lung
[5] = tested on: SK-MEL-28 melanoma
[6] = tested on: IGROV1 ovarian
[7] = tested on: SF-295 CNS
[8] = tested on: MALME-3M melanoma
[9] = tested on: MDA-MB-435
[10] = tested on: SF-539 CNS
[11] = tested on: K-562 leukemia
[12] = tested on: RPMI-8226 leukemia
[13] = tested on: UACC-257 melanoma
[14] = tested on: SK-MEL-2 melanoma
[15] = tested on: HL-60(TB) leukemia
[16] = tested on: UO-31 renal
[17] = tested on: UACC-62 melanoma
[18] = tested on: DU-145 prostate
[19] = tested on: NCI-H226 lung
[20] = tested on: A549 NSCLC
[21] = tested on: NCI-H522 lung
[22] = tested on: NCI/ADR-RES ovarian
[23] = tested on: U251 CNS
[24] = tested on: SK-MEL-5 melanoma
[25] = tested on: LOX IMVI melanoma
[26] = tested on: HT29 colon
[27] = tested on: 786-0 renal
[28] = tested on: HOP-62 NSCLC
[29] = tested on: NCI-H23 lung
[30] = tested on: EKVX NSCLC
[31] = tested on: MOLT-4 leukemia
[32] = tested on: SNB-75 CNS
[33] = tested on: SF-268 CNS
[34] = tested on: KM12 colon
[35] = tested on: MCF7 breast
[36] = tested on: HCT-15 colon
[37] = tested on: SNB-19 CNS
[38] = tested on: OVCAR-3 ovarian
[39] = tested on: HS 578T breast
[40] = tested on: MDA-MB-231 breast
[41] = tested on: A498 renal
[42] = tested on: BT-549 breast
[43] = tested on: M14 melanoma
[44] = tested on: ACHN renal
[45] = tested on: OVCAR-5 ovarian
[46] = tested on: SW-620 colon
[47] = tested on: CAKI-1 renal
[48] = tested on: HCC-2998 colon
[49] = tested on: OVCAR-4 ovarian
[50] = tested on: TK-10 renal
[51] = tested on: SN12C renal
[52] = tested on: CCRF-CEM leukemia
[53] = tested on: OVCAR-8 ovarian
[54] = tested on: SR leukemia
[55] = tested on: SK-OV-3 ovarian
[56] = tested on: T-47D breast
[57] = tested on: HOP-92 NSCLC
[58] = tested on: RXF 393 renal

COc1cccc(C2C3=C(COC3=O)N(CCO)c3cc(OC)ccc32)c1 (stereo not given)
GI50 [1]: 89.8 nM | TGI [1]: > 100000 nM | GI50 [2]: 107 nM | TGI [2]: 755 nM | GI50 [3]: 107 nM | GI50 [4]: 90.6 nM | GI50 [5]: 130 nM | TGI [5]: > 100000 nM | GI50 [6]: 305 nM | TGI [6]: > 100000 nM | GI50 [7]: 42.2 nM | TGI [7]: > 100000 nM | GI50 [8]: 78.6 nM | TGI [8]: > 100000 nM | GI50 [9]: 23.2 nM | TGI [9]: 63.1 nM | GI50 [10]: 87.8 nM | GI50 [11]: 89.5 nM | TGI [11]: > 100000 nM | GI50 [12]: 271 nM | TGI [12]: > 100000 nM | GI50 [13]: 36 nM | TGI [13]: > 100000 nM | GI50 [14]: 536 nM | GI50 [15]: 276 nM | TGI [15]: > 100000 nM | GI50 [16]: 187 nM | TGI [16]: > 100000 nM | GI50 [17]: 48.8 nM | TGI [17]: > 100000 nM | GI50 [18]: 139 nM | TGI [18]: 1910 nM | GI50 [19]: 182 nM | TGI [19]: 8860 nM | GI50 [20]: 120 nM | TGI [20]: > 100000 nM | GI50 [21]: 30.7 nM | TGI [21]: 1440 nM | GI50 [22]: 90.8 nM | GI50 [23]: 99.2 nM | TGI [23]: > 100000 nM | GI50 [24]: 47.4 nM | TGI [24]: 1970 nM | GI50 [25]: 227 nM | TGI [25]: > 100000 nM | GI50 [26]: 74.3 nM | TGI [26]: 2900 nM | GI50 [27]: 148 nM | TGI [27]: > 29600 nM | GI50 [28]: 124 nM | TGI [28]: > 100000 nM | GI50 [29]: 172 nM | TGI [29]: > 100000 nM | GI50 [30]: 22600 nM | TGI [30]: > 100000 nM | GI50 [31]: 440 nM | TGI [31]: > 100000 nM | GI50 [32]: 67.1 nM | TGI [32]: > 100000 nM | GI50 [33]: 181 nM | TGI [33]: > 100000 nM | GI50 [34]: 54.3 nM | GI50 [35]: 34.8 nM | TGI [35]: > 100000 nM | GI50 [36]: 121 nM | TGI [36]: > 100000 nM | GI50 [37]: 221 nM | TGI [37]: > 100000 nM | GI50 [38]: 34.7 nM | TGI [38]: 166 nM | GI50 [39]: 188 nM | TGI [39]: > 80800 nM | GI50 [40]: 362 nM | TGI [40]: 4910 nM | GI50 [41]: 36.7 nM | TGI [41]: 1080 nM | GI50 [42]: 295 nM | TGI [42]: > 28500 nM | GI50 [43]: 156 nM | TGI [43]: > 100000 nM | GI50 [44]: 230 nM | TGI [44]: > 100000 nM | GI50 [45]: 442 nM | TGI [45]: > 100000 nM | GI50 [46]: 86.3 nM | TGI [46]: > 100000 nM | GI50 [47]: 768 nM | TGI [47]: > 100000 nM | GI50 [48]: 137 nM | TGI [48]: > 100000 nM | GI50 [49]: 153 nM | TGI [49]: > 100000 nM | TGI [50]: > 100000 nM | GI50 [51]: 493 nM | TGI [51]: > 100000 nM | GI50 [52]: 204 nM | TGI [52]: > 100000 nM | GI50 [53]: 206 nM | TGI [53]: > 100000 nM | GI50 [54]: 49.3 nM | TGI [54]: > 100000 nM | GI50 [55]: 109 nM

CN(C)c1nc2oc(-c3ccccc3)c(-c3ccccc3)c2c2nncn12
TGI [2]: > 100000 nM | TGI [3]: > 100000 nM | TGI [5]: > 100000 nM | TGI [6]: > 100000 nM | TGI [7]: > 100000 nM | TGI [56]: > 100000 nM | TGI [9]: > 100000 nM | TGI [10]: > 100000 nM | TGI [11]: > 100000 nM | TGI [12]: > 100000 nM | TGI [13]: > 100000 nM | TGI [16]: > 100000 nM | TGI [17]: > 100000 nM | TGI [18]: > 100000 nM | TGI [19]: > 100000 nM | TGI [20]: > 100000 nM | TGI [21]: > 100000 nM | TGI [22]: > 100000 nM | TGI [23]: > 100000 nM | TGI [25]: > 100000 nM | TGI [26]: > 100000 nM | TGI [27]: > 100000 nM | TGI [29]: > 100000 nM | TGI [30]: > 100000 nM | TGI [32]: > 100000 nM | TGI [57]: > 100000 nM | TGI [33]: > 100000 nM | TGI [34]: > 100000 nM | TGI [35]: > 100000 nM | TGI [36]: > 100000 nM | TGI [37]: > 100000 nM | TGI [39]: > 100000 nM | TGI [40]: > 100000 nM | TGI [41]: > 100000 nM | TGI [43]: > 100000 nM | TGI [44]: > 100000 nM | TGI [45]: > 100000 nM | TGI [46]: > 100000 nM | TGI [47]: > 100000 nM | TGI [48]: > 100000 nM | TGI [49]: > 100000 nM | TGI [50]: > 100000 nM | TGI [51]: > 100000 nM | TGI [52]: > 100000 nM | TGI [53]: > 100000 nM | TGI [54]: > 100000 nM | TGI [55]: > 100000 nM | TGI [58]: > 100000 nM

CN(CCCCCl)P(=O)(OCc1ccc([N+](=O)[O-])o1)OCC1OC(n2ccc(N)nc2=O)C(F)(F)C1O (stereo not given)
GI50 [1]: 1820 nM | TGI [1]: 99300 nM | GI50 [2]: 7470 nM | TGI [2]: > 41600 nM | GI50 [3]: 1160 nM | TGI [3]: > 100000 nM | GI50 [4]: 300 nM | GI50 [5]: 43100 nM | TGI [5]: > 100000 nM | GI50 [6]: 35400 nM | TGI [6]: > 100000 nM | GI50 [7]: 878 nM | TGI [7]: > 54600 nM | GI50 [9]: 473 nM | TGI [9]: > 50900 nM | GI50 [10]: 41.7 nM | TGI [10]: 427 nM | GI50 [11]: 13000 nM | TGI [11]: > 100000 nM | GI50 [12]: 1870 nM | TGI [12]: > 100000 nM | GI50 [13]: 17200 nM | TGI [13]: > 100000 nM | GI50 [14]: > 80300 nM | TGI [14]: > 100000 nM | GI50 [15]: 1560 nM | TGI [15]: 17700 nM | TGI [16]: > 100000 nM | GI50 [17]: 1100 nM | TGI [17]: > 100000 nM | GI50 [18]: 188 nM | TGI [18]: > 28400 nM | GI50 [19]: 15700 nM | TGI [19]: > 100000 nM | GI50 [20]: 730 nM | TGI [20]: > 59500 nM | GI50 [21]: > 39000 nM | TGI [21]: > 100000 nM | GI50 [22]: 419 nM | TGI [22]: > 100000 nM | GI50 [23]: 770 nM | TGI [23]: > 86500 nM | GI50 [24]: 3200 nM | TGI [24]: > 67100 nM | GI50 [25]: 754 nM | TGI [25]: > 40600 nM | GI50 [26]: 29700 nM | TGI [26]: > 100000 nM | GI50 [27]: 61.4 nM | TGI [27]: 1500 nM | GI50 [28]: 494 nM | TGI [28]: > 100000 nM | GI50 [29]: 74.2 nM | TGI [29]: 1530 nM | GI50 [30]: 2480 nM | TGI [30]: > 75400 nM | GI50 [31]: 379 nM | TGI [31]: 8920 nM | GI50 [32]: 12500 nM | TGI [32]: 97500 nM | GI50 [57]: 155 nM | TGI [57]: 830 nM | GI50 [33]: 257 nM | GI50 [34]: 14800 nM | TGI [34]: > 73900 nM | GI50 [35]: 450 nM | TGI [35]: > 49000 nM | GI50 [36]: > 73500 nM | TGI [36]: > 100000 nM | GI50 [37]: 257 nM | GI50 [38]: 3150 nM | TGI [38]: > 45500 nM | GI50 [39]: > 68000 nM | TGI [39]: > 100000 nM | GI50 [40]: > 49300 nM | TGI [40]: > 100000 nM | GI50 [41]: 5800 nM | TGI [41]: > 74500 nM | GI50 [42]: 1570 nM | TGI [42]: 88200 nM | GI50 [43]: 53.7 nM | TGI [43]: 269 nM | GI50 [44]: 37.4 nM | GI50 [45]: 1920 nM | TGI [45]: > 100000 nM | GI50 [46]: > 62000 nM | TGI [46]: > 100000 nM | GI50 [47]: 223 nM | GI50 [48]: 3150 nM | TGI [48]: 49100 nM | TGI [50]: > 82700 nM | GI50 [51]: 363 nM | TGI [51]: 9620 nM | GI50 [53]: 108 nM | GI50 [54]: 801 nM | TGI [54]: 5630 nM | GI50 [55]: 2220 nM | TGI [55]: > 100000 nM | GI50 [58]: > 100000 nM | TGI [58]: > 100000 nM
